From PubChem BioAssay (NCI)
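Growth conditions: 96-well plates. Treatment: test compound, 48 hours, 5 concentrations. Analysis: linear interpolation between bracketing concentrations; unreached endpoints set to highest concentration. At the TGI there is no net growth.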

Experiments:
Test in all cases: inhibition of tumour cell growth, NCI panel, 48 h
MDA-N = tested on: MDA-N
MOLT-4 leukemia = tested on: MOLT-4 leukemia
HOP-62 NSCLC = tested on: HOP-62 NSCLC
T-47D breast = tested on: T-47D breast
UACC-257 melanoma = tested on: UACC-257 melanoma
K-562 leukemia = tested on: K-562 leukemia
OVCAR-5 ovarian = tested on: OVCAR-5 ovarian
MDA-MB-435 = tested on: MDA-MB-435
NCI-H522 lung = tested on: NCI-H522 lung
COLO 205 colon = tested on: COLO 205 colon
LOX IMVI melanoma = tested on: LOX IMVI melanoma
MDA-MB-231 breast = tested on: MDA-MB-231 breast
MCF7 breast = tested on: MCF7 breast
ACHN renal = tested on: ACHN renal
HT29 colon = tested on: HT29 colon
BT-549 breast = tested on: BT-549 breast
SK-MEL-2 melanoma = tested on: SK-MEL-2 melanoma
NCI-H226 lung = tested on: NCI-H226 lung
A549 NSCLC = tested on: A549 NSCLC
RPMI-8226 leukemia = tested on: RPMI-8226 leukemia
SK-OV-3 ovarian = tested on: SK-OV-3 ovarian
SR leukemia = tested on: SR leukemia
786-0 renal = tested on: 786-0 renal
TK-10 renal = tested on: TK-10 renal
NCI-H460 lung = tested on: NCI-H460 lung
EKVX NSCLC = tested on: EKVX NSCLC
UACC-62 melanoma = tested on: UACC-62 melanoma
SK-MEL-5 melanoma = tested on: SK-MEL-5 melanoma
HCC-2998 colon = tested on: HCC-2998 colon
SF-539 CNS = tested on: SF-539 CNS
HS 578T breast = tested on: HS 578T breast
KM12 colon = tested on: KM12 colon
OVCAR-3 ovarian = tested on: OVCAR-3 ovarian
SF-268 CNS = tested on: SF-268 CNS
NCI-H23 lung = tested on: NCI-H23 lung
SF-295 CNS = tested on: SF-295 CNS
PC-3 prostate = tested on: PC-3 prostate
RXF 393 renal = tested on: RXF 393 renal
OVCAR-8 ovarian = tested on: OVCAR-8 ovarian
CCRF-CEM leukemia = tested on: CCRF-CEM leukemia
UO-31 renal = tested on: UO-31 renal
DU-145 prostate = tested on: DU-145 prostate
CAKI-1 renal = tested on: CAKI-1 renal
SW-620 colon = tested on: SW-620 colon
SNB-19 CNS = tested on: SNB-19 CNS
IGROV1 ovarian = tested on: IGROV1 ovarian
NCI/ADR-RES ovarian = tested on: NCI/ADR-RES ovarian
U251 CNS = tested on: U251 CNS
OVCAR-4 ovarian = tested on: OVCAR-4 ovarian
HL-60(TB) leukemia = tested on: HL-60(TB) leukemia
HCT-15 colon = tested on: HCT-15 colon
M14 melanoma = tested on: M14 melanoma
HOP-92 NSCLC = tested on: HOP-92 NSCLC
SN12C renal = tested on: SN12C renal
HCT-116 colon = tested on: HCT-116 colon

Measured: TGI

NC(=O)C(=CNC(=S)c1ccncc1)C(N)=O
> 100 µM: all assays above
